# Where two headings read alike, the source gives them in different places.
# Legend:
# C1b domain of human PKCε = target: T1, C1b domain of human PKCε (Homo sapiens, UniProt Q02156); experiment: biochemical; assay type: binding; settings: 3H-PDBu competition
# T1 construct: Genes encoding C1b domains of human PKCα, δ, ε, θ, and PKD1 (PKCμ) were synthesized; made in house; host or cells: E. coli BL21(DE3)
# Protocol: (§1) Compounds described in this disclosure were tested for binding affinity to C1b domain of PKC isoforms. Compound binding affinity to C1b domain of PKC isoforms was derived from competitive binding assay using radioactive tracer ^3H-PDBu and recombinant GST-C1b or full-length of human PKC proteins based on modified procedures from Methods in Molecular Biology, vol.
# (§2) Genes encoding C1b domains of human PKCα, δ, ε, θ, and PKD1 (PKCμ) were synthesized and inserted into pGEX-2TK or pGEX-4T1 vectors for expression and production of GST-C1b proteins in E. coli BL21(DE3) via IPTG induction. The target proteins were purified by glutathione sepharose 4B and followed by ion exchange chromatography if needed to achieve purity >70%. Aliquots of the purified proteins were stored at −80 degree for binding assay (storage buffer: 20 mM Tris pH 8.0, 200 mM NaCl, 10% glycerol, 1 mM DTT).
# (§3) The plate was incubated at 37° C. on a shaker at 300 rpm for 10 minutes and then put on ice for 20 minutes. […] The bottom of the filter plate was sealed and 50 μL of MicroScint-20 (PerkinElmer) cocktail was added to each well. ^3H-PDBu trapped in each well was counted using PerkinElmer MicroBeta2 Reader. Data were analyzed using GraphPad Prism5 with the model “log(inhibitor) vs. response-variable slope” to fit the IC50, and then IC50 was transformed to Ki using Cheng-Prusoff equation: Ki=IC50/(1+added radio ligand/Kd). Kd is the binding affinity of each protein preparation to ^3H-PDBu, determined experimentally.
# Namalwa (Lymphoma) = experiment: Proliferation of Namalwa; assay type: cell-based
# Protocol: (§4) The diterpenoid compounds were tested in A549, a non-small cell lung cancer cell line harboring a K-Ras activating mutation. Briefly, A549 cells at a density of 1,000 cells/well were seeded in 96-well plates and incubated at 37° C. for 24 hours. A series of different concentrations of compound stocks (500×) were prepared by 3-fold serial dilution in DMSO. These compounds were further diluted in culture media and then added to cells so that the final DMSO concentration was not exceeding 0.25%. After 96 hours of incubation, 50 μL of CellTiter Glo reagent (Promega) was added to each well and luminescence was measured after 10 minutes using EnVision (PerkinElmer). Luminescence from cells treated with DMSO alone was set as Max and % of inhibition was calculated as follows: Inhibition %=(Max-Sample value)/Max×100. Data was analyzed using XL-fit software (ID Business Solutions Ltd.) and IC50, relative IC50, and % of top inhibition was calculated. Some of the compounds in this disclosure were very potent in blocking proliferation of A549 lung cancer cells at low nM range. In addition, potency of inhibiting A549 proliferation correlated well with its binding affinity to PKCs for this series of compounds. In other words, higher affinity binders had stronger inhibitory effects on A549 proliferation. This further support the notion that activation, rather than inhibition, of certain PKC isoforms is required to block proliferation of cancer cells, some of which may harbor K-Ras mutations. This is in sharp contrast to previous literature and common belief that inhibition of PKC is necessary to block cancer cell growth (Kang, 2014, New Journal of Science, 2014:1-36). Data presented here is in agreement with recent findings that many loss-of-function but not gain-of-function mutations of PKC isoforms have been identified in many human cancers (Antal et al., 2015, Cell, 160:489-502).
# (§5) The compounds in this disclosure were tested for their potency in blocking proliferation of a few other cancer cells lines, including K-Ras mutant pancreatic cell lines Panc2.13 and KP-4, leukemia cell line HL-60, and lymphoma cell lines Namalwa and Mino. Similar procedures as in Example 67 were followed. Initial cell numbers seeded in 96-well plates were different for different cell lines: 3000 cells/well for Panc2.13; 800-1000 cells/well for KP-4; 5000 cells/well for HL-60; 5000-10000 cells/well for Namalwa and Mino. A ratio of (IC50 of K101)/(IC50 of compound) (data in parenthesis in Table 5) was used to normalize the compound potency from different assay batches to a common comparator K101.
# [1] = test system: NFκB-driven transcription in HeLa-NFκB luciferase reporter cell line; experiment: NFκB luciferase reporter assay; settings: Homo sapiens, HeLa, 16 h, read-out: NFκB-luc HeLa cells EC50 (μM)
# Mino (Lymphoma) = experiment: Proliferation of Mino; assay type: cell-based
# Protocol: as §4, §5
# A549 cell line = experiment: Proliferation of A549 (CellTiter Glo); assay type: cell-based; settings: Homo sapiens, read-out: IC50 μM (A549 Cell Line)
# Protocol: as §4
# HL-60 (Leukemia) = experiment: Proliferation of HL-60; assay type: cell-based
# Protocol: as §4, §5
# [2] = target: T2, C1b domain of human PKD1 (PKCμ) (Homo sapiens, UniProt Q15139); experiment: Competitive 3H-PDBu binding assay, C1b domain of PKD1 (PKCμ); settings: 3H-PDBu competition
# T2 construct: Genes encoding C1b domains of human PKCα, δ, ε, θ, and PKD1 (PKCμ) were synthesized; made in house; host or cells: E. coli BL21(DE3)
# T2 sequence (Q15139 270-320 limits assumed): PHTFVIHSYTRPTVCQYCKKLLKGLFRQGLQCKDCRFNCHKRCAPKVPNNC
# Protocol: as §1, §2, §3
# C1b domain of human PKCδ = target: T3, C1b domain of human PKCδ (Homo sapiens, UniProt Q05655); experiment: biochemical; assay type: binding; settings: 3H-PDBu competition
# T3 construct: Genes encoding C1b domains of human PKCα, δ, ε, θ, and PKD1 (PKCμ) were synthesized; made in house; host or cells: E. coli BL21(DE3)
# Protocol: as §1, §2, §3
# CT26 tumors = experiment: CT26 tumor after single dose intratumoral treatment, H&E stain and CD31 IHC; assay type: in vivo, mouse; settings: 24h, all dose levels (47.2 μg, 141.6 μg, and 472 μg)
# Protocol: Method. Each 6-8 weeks old female Balb/c mouse was implanted with 3×10^5 CT26 mouse colon cancer cells in one flank for tumor development. When the average tumor volume reached 95 mm^3, 21 mice were randomized into different groups and were treated via a single IT injection (20 uL) according to the group assignment (different dose and treatment duration) in the table below. Tumors were harvested at 1h, 7h, or 24h post IT injection, and then fixed and processed for paraffin embedding.
# Paraffin blocks were sectioned into […] sections using Leica RM2235 microtome. One section was stained for Hematoxylin-Eosin (H&E) using Leica ST5020-CV5030 stainer integrated workstation according to the Manufacture's procedure. Photos were taken using Nikon DS-Ri2. Another section was processed for IHC staining with the CD31 antibody (BD, Cat #550274) at 1:10 dilution. The stained slides were scanned using Leica Aperio VERSA 8 and the images were analyzed using HALO image analysis software system (Indica Labs).
# T1 sequence (Q02156 242-292 limits assumed): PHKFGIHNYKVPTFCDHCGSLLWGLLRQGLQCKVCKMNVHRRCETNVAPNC
# T3 sequence (Q05655 230-280 limits assumed): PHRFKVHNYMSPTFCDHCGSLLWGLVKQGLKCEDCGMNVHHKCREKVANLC
smiles,measurement,setting,value
CC1=C[C@H]2[C@@]3(O)[C@H](C)C[C@]4(OC(=O)Cc5ccccc5)[C@H]([C@@H]3C=C(CO)C[C@]2(O)C1=O)C4(C)C,Ki,C1b domain of human PKCε,10 to 30 nM
same,ratio (IC50 of K101)/(IC50 of compound) Namalwa,Namalwa (Lymphoma),3.29
same,IC50,Namalwa (Lymphoma); read-out: IC50 Namalwa (Lymphoma),10 to 30 nM
same,EC50,[1],0.03 to 0.06 µM
same,ratio (IC50 of K101)/(IC50 of compound) Mino,Mino (Lymphoma),15.6
same,IC50,"Mino (Lymphoma); Homo sapiens, MINO, read-out: IC50 Mino (Lymphoma)",1 to 10 nM
same,IC50,"A549 cell line; A549, 96 hours, CellTiter Glo",0.03 to 0.06 µM
same,ratio (IC50 of K101)/(IC50 of compound) HL-60,HL-60 (Leukemia),18
same,IC50,"HL-60 (Leukemia); Homo sapiens, HL-60, read-out: IC50 HL-60 (Leukemia)",10 to 30 nM
CC1=C[C@H]2[C@@]3(O)[C@H](C)C[C@]4(OC(=O)CC5CC6(CNC6)C5)[C@H]([C@@H]3C=C(CO)C[C@]2(O)C1=O)C4(C)C,Ki,[2],10 to 30 nM
same,IC50,"A549 cell line; A549, 96 h",> 30 µM
CC1=C[C@H]2[C@@]3(O)[C@H](C)C[C@]4(OC(=O)CCc5scnc5C)[C@H]([C@@H]3C=C(CO)C[C@]2(O)C1=O)C4(C)C,Ki,[2],10 to 30 nM
same,IC50,"A549 cell line; A549, 96 h",0.2 to 0.6 µM
CC1=C[C@H]2[C@@]3(O)[C@H](C)C[C@]4(OC(=O)CCCCCCCCCCCC(=O)O)[C@H]([C@@H]3C=C(CO)C[C@]2(O)C1=O)C4(C)C,Ki,[2],60 to 100 nM
same,IC50,"A549 cell line; A549, 96 h",10 to 30 µM
CSC[C@H](N)C(=O)O[C@@]12C[C@@H](C)[C@@]3(O)[C@@H](C=C(CO)C[C@]4(O)C(=O)C(C)=C[C@@H]34)[C@@H]1C2(C)C,Ki,[2],60 to 100 nM
same,IC50,"A549 cell line; A549, 96 h",5 to 10 µM
CC1=C[C@H]2[C@@]3(O)[C@H](C)C[C@]4(OC(=O)[C@@H](N)Cc5c[nH]c6ccccc56)[C@H]([C@@H]3C=C(CO)C[C@]2(O)C1=O)C4(C)C,Ki,C1b domain of human PKCδ,10 to 30 nM
same,IC50,"A549 cell line; A549, 96 h",10 to 30 µM
CC1=C[C@H]2[C@@]3(O)[C@H](C)C[C@]4(OC(=O)[C@H](N)Cc5c[nH]c6ccccc56)[C@H]([C@@H]3C=C(CO)C[C@]2(O)C1=O)C4(C)C,Ki,[2],10 to 30 nM
same,IC50,"A549 cell line; A549, 96 h",10 to 30 µM
CC1=C[C@H]2[C@@]3(O)[C@H](C)C[C@]4(OC(=O)C[C@H](N)c5ccccc5)[C@H]([C@@H]3C=C(CO)C[C@]2(O)C1=O)C4(C)C,Ki,[2],10 to 30 nM
same,IC50,"A549 cell line; A549, 96 h",1 to 2 µM
CC1=C[C@H]2[C@@]3(O)[C@H](C)C[C@]4(OC(=O)C[C@@H](N)Cc5ccccc5)[C@H]([C@@H]3C=C(CO)C[C@]2(O)C1=O)C4(C)C,Ki,[2],10 to 30 nM
same,IC50,"A549 cell line; A549, 96 h",1 to 2 µM
CC1=C[C@H]2[C@@]3(O)[C@H](C)C[C@]4(OC(=O)[C@H](N)CCCCCCc5ccccc5)[C@H]([C@@H]3C=C(COC(=O)[C@@H](N)C(C)C)C[C@]2(O)C1=O)C4(C)C,"reduction of CD31 density, on average, compared with the vehicle control",CT26 tumors,> 50%
